# Assay results reported in ChEMBL document CHEMBL6134848, “Deuteration Strategy-Inspired Design of Novel Diarylpyrimidine Derivatives as Potent Non-Nucleoside Reverse Transcriptase Inhibitors Featuring Improved Efficacy, Selectivity, and Druggability” (J Med Chem, 2025).
# How the values were obtained:
# [1] = Protein binding in human plasma at 1 uM incubated for 6 hrs; format: ADME, cell-free; details: read-out: PPB (converted)
# [2] = Half life in Sprague-Dawley rat at 1 mg/kg, iv measured for 0.083 to 24 hrs by LC-MS/MS analysis; format: ADME, organism-based; details: in vivo, time 0.083-24 hrs
# [3] = Metabolic stability in human liver microsomes assessed as half life at 1 uM measured up to 45 mins by LC/MS/MS analysis; format: ADME, Microsome; details: microsomes, 0.75 h, 1 µM
# [4] = Acute toxicity in ICR mouse assessed as pathological change in lung at 2000 mg/kg, IG measured for 14 days by H and E staining based analysis; format: organism-based; details: in vivo, po, 336 h, time 14 day
# [5] = Protein binding in human plasma assessed as unbound fraction at 1 uM incubated for 6 hrs; format: ADME, cell-free
# [6] = Acute toxicity in ICR mouse assessed as pathological change in spleen at 2000 mg/kg, IG measured for 14 days by H and E staining based analysis; format: organism-based; details: in vivo, po, 336 h, time 14 day
# [7] = Stability in human plasma assessed as compound remaining at 1 uM measured after 3 hrs by LC-MS/MS analysis; format: ADME, cell-free; details: read-out: Stability
# [8] = test system: Human immunodeficiency virus 1; assay: Antiviral activity against wild-type HIV-1 IIIB infected in human MT4 cells assessed as protection against virus-induced cytopathicity measured after 5 days post-infection by MTT assay; format: functional, organism-based; details: Human immunodeficiency virus 1, IIIB, MT4, 120 h
# [9] = test system: Human immunodeficiency virus 1; assay: Antiviral activity against drug-resistant HIV-1 harboring RT L100I mutant infected in human MT4 cells assessed as protection against virus-induced cytopathicity measured after 5 days post-infection by MTT assay; format: functional, organism-based; details: Human immunodeficiency virus 1, MT4, 120 h
# [10] = Drug metabolism in dog liver microsomes assessed as metabolic fraction at 1 uM measured up to 45 mins by LC/MS/MS analysis; format: ADME, Canis lupus familiaris, Microsome; details: microsomes, 0.75 h, 1 µM
# [11] = target: Cytochrome P450 2D6 (Homo sapiens, UniProt P10635); assay: Inhibition of CYP2D6 in human liver microsomes using dextromethorphan as substrate incubated for 15 to 45 mins by; format: ADME, Microsome
# [12] = Stability in human liver microsomes assessed as compound remaining at […] preincubated for 30 mins in ice-water bath followed by incubation at 37 degreeC for 5 mins and further addition of NADPH/UDPGA measured 20.86 mins by LC-MS/MS analysis; format: ADME, Microsome; details: time 55.86 min, read-out: Stability
# [13] = test system: Human immunodeficiency virus 1; assay: Potency index, ratio of NVP EC50 to test compound EC50 for antiviral activity against wild-type HIV-1 IIIB infected in human MT4 cells assessed as protection against virus-induced cytopathicity measured after 5 days post-infection by MTT assay; format: functional
# [14] = Cmax in Sprague-Dawley rat at 1 mg/kg, iv measured for 0.083 to 24 hrs by LC-MS/MS analysis; format: ADME, organism-based; details: in vivo, time 0.083-24 hrs
# [15] = test system: Human immunodeficiency virus 1; assay: Potency index, ratio of ETR EC50 to test compound EC50 for antiviral activity against wild-type HIV-1 IIIB infected in human MT4 cells assessed as protection against virus-induced cytopathicity measured after 5 days post-infection by MTT assay; format: functional
# [16] = Acute toxicity in ICR mouse assessed as pathological change in heart at 2000 mg/kg, IG measured for 14 days by H and E staining based analysis; format: organism-based; details: in vivo, po, 336 h, time 14 day
# [17] = target: Cytochrome P450 2C19 (Homo sapiens, UniProt P33261); assay: Inhibition of CYP2C19 in human liver microsomes using S-mephenytoin as substrate incubated for 15 to 45 mins by; format: ADME, Microsome
# [18] = Stability in human plasma assessed as compound remaining at 1 uM measured after 1 hr by LC-MS/MS analysis; format: ADME, cell-free; details: read-out: Stability
# [19] = MRT (0 to infinity) in Sprague-Dawley rat at 1 mg/kg, iv measured for 0.083 to 24 hrs by LC-MS/MS analysis; format: ADME, organism-based; details: in vivo, time 0.083-24 hrs
# [20] = target: Voltage-gated inwardly rectifying potassium channel KCNH2 (Homo sapiens, UniProt Q12809); assay: Inhibition of hERG expressed in CHO cells by manual patch-clamp electrophysiology; format: toxicity, cell-based
# [21] = target: T1, Cytochrome P450 2C8 (Homo sapiens, UniProt P10632); assay: Inhibition of CYP2C8 in human liver microsomes using amodiaquine as substrate incubated for 15 to 45 mins by; format: ADME, Microsome
# T1 sequence (P10632 whole entry): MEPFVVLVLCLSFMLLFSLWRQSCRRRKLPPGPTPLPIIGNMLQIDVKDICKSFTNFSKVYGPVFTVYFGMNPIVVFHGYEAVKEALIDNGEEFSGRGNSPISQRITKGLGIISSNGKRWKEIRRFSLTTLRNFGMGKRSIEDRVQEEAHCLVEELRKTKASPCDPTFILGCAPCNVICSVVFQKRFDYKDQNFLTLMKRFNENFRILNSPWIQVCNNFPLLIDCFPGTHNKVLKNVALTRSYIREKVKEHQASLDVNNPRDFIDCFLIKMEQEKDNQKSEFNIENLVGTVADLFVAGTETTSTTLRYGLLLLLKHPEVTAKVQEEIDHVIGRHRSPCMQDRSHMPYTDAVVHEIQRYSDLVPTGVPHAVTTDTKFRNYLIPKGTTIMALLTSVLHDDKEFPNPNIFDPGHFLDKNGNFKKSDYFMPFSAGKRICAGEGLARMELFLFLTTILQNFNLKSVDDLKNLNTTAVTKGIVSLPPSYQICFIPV
# [22] = AUC (0 to t) in Sprague-Dawley rat at 10 mg/kg, po measured for 0.083 to 24 hrs by LC-MS/MS analysis; format: ADME, organism-based; details: in vivo, time 0.083-24 hrs
# [23] = MRT (0 to infinity) in Sprague-Dawley rat at 10 mg/kg, po measured for 0.083 to 24 hrs by LC-MS/MS analysis; format: ADME, organism-based; details: in vivo, time 0.083-24 hrs
# [24] = Tmax in Sprague-Dawley rat at 1 mg/kg, iv measured for 0.083 to 24 hrs by LC-MS/MS analysis; format: ADME, organism-based; details: in vivo, time 0.083-24 hrs
# [25] = Tmax in Sprague-Dawley rat at 10 mg/kg, po measured for 0.083 to 24 hrs by LC-MS/MS analysis; format: ADME, organism-based; details: in vivo, time 0.083-24 hrs
# [26] = test system: Human immunodeficiency virus 1; assay: Antiviral activity against drug-resistant HIV-1 harboring RT F227L/V106A mutant infected in human MT4 cells assessed as protection against virus-induced cytopathicity measured after 5 days post-infection by MTT assay; format: functional, organism-based; details: Human immunodeficiency virus 1, MT4, 120 h
# [27] = Acute toxicity in ICR mouse assessed as pathological change in brain at 2000 mg/kg, IG measured for 14 days by H and E staining based analysis; format: organism-based; details: in vivo, po, 336 h, time 14 day
# [28] = Acute toxicity in ICR mouse assessed as drug tolerance at 2000 mg/kg, IG measured for 14 days; format: organism-based; details: in vivo, po, 336 h, time 14 day
# [29] = target: T2, Cytochrome P450 3A4 (Homo sapiens, UniProt P08684); assay: Inhibition of CYP3A4 in human liver microsomes using midazolam as substrate incubated for 15 to 45 mins by; format: ADME, Microsome
# [30] = Stability in human plasma assessed as compound remaining at 1 uM measured after 2 hrs by LC-MS/MS analysis; format: ADME, cell-free; details: read-out: Stability
# [31] = AUC (0 to infinity) in Sprague-Dawley rat at 1 mg/kg, iv measured for 0.083 to 24 hrs by LC-MS/MS analysis; format: ADME, organism-based; details: in vivo, time 0.083-24 hrs
# [32] = target: T2, Cytochrome P450 3A4; assay: Inhibition of CYP3A4 in human liver microsomes using testosterone as substrate incubated for 15 to 45 mins by; format: ADME, Microsome
# [33] = Stability in human plasma assessed as compound remaining at 1 uM measured after 0.5 hrs by LC-MS/MS analysis; format: ADME, cell-free; details: read-out: Stability
# T2 sequence (P08684 whole entry): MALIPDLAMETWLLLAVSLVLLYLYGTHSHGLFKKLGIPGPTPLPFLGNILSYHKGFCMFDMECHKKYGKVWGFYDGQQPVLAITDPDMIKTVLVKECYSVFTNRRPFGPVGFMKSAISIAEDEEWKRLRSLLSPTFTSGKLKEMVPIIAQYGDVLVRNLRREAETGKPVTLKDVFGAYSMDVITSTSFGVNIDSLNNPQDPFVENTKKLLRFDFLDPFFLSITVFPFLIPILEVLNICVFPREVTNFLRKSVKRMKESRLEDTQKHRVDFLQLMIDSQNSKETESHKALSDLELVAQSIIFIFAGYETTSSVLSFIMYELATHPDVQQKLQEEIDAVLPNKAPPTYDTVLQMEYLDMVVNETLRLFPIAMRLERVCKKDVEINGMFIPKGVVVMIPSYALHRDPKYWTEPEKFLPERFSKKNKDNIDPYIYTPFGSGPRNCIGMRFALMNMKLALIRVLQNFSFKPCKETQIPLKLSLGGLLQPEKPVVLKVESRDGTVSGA
# Cytochrome P450 2C19, sequence (P33261 whole entry): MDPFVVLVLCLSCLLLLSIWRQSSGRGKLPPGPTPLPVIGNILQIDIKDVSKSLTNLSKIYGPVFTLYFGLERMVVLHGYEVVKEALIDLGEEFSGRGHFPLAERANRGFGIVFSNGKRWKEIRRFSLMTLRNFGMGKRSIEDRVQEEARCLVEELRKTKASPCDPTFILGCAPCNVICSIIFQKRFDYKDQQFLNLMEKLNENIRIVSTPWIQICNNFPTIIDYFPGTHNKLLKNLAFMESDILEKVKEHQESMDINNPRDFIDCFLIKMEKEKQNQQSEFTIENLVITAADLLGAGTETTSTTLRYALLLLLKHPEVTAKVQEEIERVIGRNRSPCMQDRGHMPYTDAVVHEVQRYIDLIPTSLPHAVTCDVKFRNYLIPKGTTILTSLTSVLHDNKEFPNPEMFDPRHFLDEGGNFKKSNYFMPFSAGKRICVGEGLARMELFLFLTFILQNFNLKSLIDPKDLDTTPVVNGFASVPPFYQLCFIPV
# Cytochrome P450 2D6, sequence (P10635 whole entry): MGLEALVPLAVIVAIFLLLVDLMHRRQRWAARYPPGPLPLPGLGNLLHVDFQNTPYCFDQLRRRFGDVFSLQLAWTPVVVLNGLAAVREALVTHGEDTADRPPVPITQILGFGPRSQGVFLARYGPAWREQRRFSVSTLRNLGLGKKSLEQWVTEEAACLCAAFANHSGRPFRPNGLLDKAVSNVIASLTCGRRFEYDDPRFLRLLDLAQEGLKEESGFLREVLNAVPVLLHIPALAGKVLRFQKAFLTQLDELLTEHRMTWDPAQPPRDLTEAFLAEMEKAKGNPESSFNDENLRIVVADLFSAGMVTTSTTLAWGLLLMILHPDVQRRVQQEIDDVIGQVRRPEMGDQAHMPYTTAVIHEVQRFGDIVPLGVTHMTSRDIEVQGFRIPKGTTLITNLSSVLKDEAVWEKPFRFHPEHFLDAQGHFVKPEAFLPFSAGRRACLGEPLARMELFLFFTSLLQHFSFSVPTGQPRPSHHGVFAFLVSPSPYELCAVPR
# Voltage-gated inwardly rectifying potassium channel KCNH2, sequence (Q12809 whole entry): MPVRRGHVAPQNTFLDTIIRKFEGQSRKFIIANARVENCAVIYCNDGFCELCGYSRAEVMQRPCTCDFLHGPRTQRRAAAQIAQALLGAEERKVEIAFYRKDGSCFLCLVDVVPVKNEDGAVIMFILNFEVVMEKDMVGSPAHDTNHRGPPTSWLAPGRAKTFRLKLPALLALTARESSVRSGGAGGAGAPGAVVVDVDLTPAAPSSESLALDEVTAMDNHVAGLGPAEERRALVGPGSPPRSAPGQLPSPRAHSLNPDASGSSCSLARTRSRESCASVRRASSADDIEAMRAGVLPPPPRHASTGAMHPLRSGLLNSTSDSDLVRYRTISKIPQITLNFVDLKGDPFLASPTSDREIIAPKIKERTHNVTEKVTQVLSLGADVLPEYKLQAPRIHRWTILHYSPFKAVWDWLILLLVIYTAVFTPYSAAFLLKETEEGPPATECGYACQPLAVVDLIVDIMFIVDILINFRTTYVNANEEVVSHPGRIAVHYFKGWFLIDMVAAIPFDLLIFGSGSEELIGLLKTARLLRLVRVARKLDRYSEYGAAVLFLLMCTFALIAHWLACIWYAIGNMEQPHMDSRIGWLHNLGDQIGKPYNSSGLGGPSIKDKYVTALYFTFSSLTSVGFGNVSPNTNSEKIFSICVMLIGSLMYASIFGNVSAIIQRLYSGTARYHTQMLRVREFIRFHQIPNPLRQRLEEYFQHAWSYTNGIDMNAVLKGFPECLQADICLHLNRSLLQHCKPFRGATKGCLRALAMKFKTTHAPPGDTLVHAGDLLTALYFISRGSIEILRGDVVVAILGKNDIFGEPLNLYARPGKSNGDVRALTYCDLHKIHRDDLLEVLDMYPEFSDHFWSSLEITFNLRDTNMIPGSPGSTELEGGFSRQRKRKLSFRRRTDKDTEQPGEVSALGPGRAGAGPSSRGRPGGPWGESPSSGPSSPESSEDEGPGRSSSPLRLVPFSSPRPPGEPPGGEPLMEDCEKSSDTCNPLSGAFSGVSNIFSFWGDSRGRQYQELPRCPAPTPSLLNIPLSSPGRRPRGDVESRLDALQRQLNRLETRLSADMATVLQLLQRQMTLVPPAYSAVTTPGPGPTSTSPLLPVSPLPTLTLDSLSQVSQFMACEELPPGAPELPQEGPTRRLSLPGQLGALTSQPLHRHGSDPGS
compound,measurement,setting,value
[2H]C([2H])([2H])c1cc(C#N)cc(C([2H])([2H])[2H])c1Oc1nc(NC2CCN(Cc3ccc(S(N)(=O)=O)cc3)CC2)nc2ccsc12,"fraction unbound at 6 h, 1 µM",[1],0.005
same,half-life,[2],58.2 min
same,t1/2,[3],18.6 min
same,Activity,[4],Non-toxic
same,Fu,[5],0.453%
same,Activity,[6],Non-toxic
same,"remaining at 3 h, 1 µM",[7],92.2%
same,EC50,[8],0.99 nM
same,EC50,[9],2.61 nM
same,Fm,[10],17.3%
same,IC50,[11],> 10000 nM
same,remaining at 0.347667 h,[12],58.8%
same,Ratio EC50,[13],256
same,Cmax,[14],1240 ng/mL
same,Ratio EC50,[15],3.3
same,Activity,[16],Non-toxic
same,IC50,[17],> 10000 nM
same,"remaining at 1 h, 1 µM",[18],96.5%
same,MRT inf,[19],50.4 min
same,IC50,[20],932 nM
same,IC50,[21],> 10000 nM
same,AUC(0-t),[22],1720 ng·h/mL
same,MRT inf,[23],161 min
same,Tmax,[24],4.8 min
same,Tmax,[25],30 min
same,EC50,[26],4.46 nM
same,Activity,[27],Non-toxic
same,Activity,[28],Non-toxic
same,IC50,[29],> 10000 nM
same,"remaining at 2 h, 1 µM",[30],92.7%
same,AUC(0-inf),[31],729 ng·h/mL
same,IC50,[32],> 10000 nM
same,"remaining at 0.5 h, 1 µM",[33],98.9%
